The record followed here is patent publication EP2582674B1 (Cymabay Therapeutics, Inc., priority 2010, dated 2011).

A word on the EC50: it is the midpoint of the concentration-response curve.

Bounds are passed on as bounds.

The target in one assay is T1, human GPR120 (Homo sapiens, UniProt Q5NUL3).
T1 construct: host or cells: HEK293 cells co-expressing Gqi5
T1 sequence (Q5NUL3 1-361): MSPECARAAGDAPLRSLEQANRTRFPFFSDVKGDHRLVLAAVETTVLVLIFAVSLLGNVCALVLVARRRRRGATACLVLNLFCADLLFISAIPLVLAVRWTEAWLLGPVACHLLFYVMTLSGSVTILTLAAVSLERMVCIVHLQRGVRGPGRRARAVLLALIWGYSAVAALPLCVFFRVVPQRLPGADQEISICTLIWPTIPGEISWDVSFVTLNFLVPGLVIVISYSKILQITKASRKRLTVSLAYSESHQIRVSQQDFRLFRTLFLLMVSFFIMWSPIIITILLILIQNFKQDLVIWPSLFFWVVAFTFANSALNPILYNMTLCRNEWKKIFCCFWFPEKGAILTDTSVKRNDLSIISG
Description: Intracellular Ca2+ assay in human GPR120 stable cell line (FLIPR Calcium 4 dye, Flexstation). The format is cell-based. The settings on record: % activity at 2.5 µM compared to the maximal activity of the compound of Example 25 at 2.5 µM (=100%); HEK293 cells co-expressing Gqi5; read-out: % Activity (Ex. 25 Reference Compound). The procedure:
Human GPR120 stable cell line was purchased from Multispan Inc (26219 Eden Landing Road, Hayward, CA94545). This GPR120 cell line was generated in HEK293 cells co-expressing Gqi5. In this cell line, the Flag epitope tag (DYKDDDDK) was fused to the amino terminus of human GPR120 protein.
The concentration of intracellular Ca^2+ was measured as described below. Human GPR120 cells were plated in 96 well plates (Poly-D-Lysine coated black/clear Plate, Greiner Bio-One) at 70,000 cells per well and cultured overnight in conditions of 37°C and 5% CO2. A Ca^2+ assay dye stock solution was prepared by adding 10 mL of assay buffer (HBSS/20mM HEPES, pH 7.4) to FLIPR Calcium 4 Assay Bulk Kit (Molecular Devices). The 10 mL of Ca^2+ assay dye solution was prepared by further diluting 0.5 mL of Ca^2+ assay dye stock solution with 10 mL of assay buffer. The medium of the cells was removed and immediately 100 µL of the Ca^2+ assay dye solution was dispensed into each well followed by incubation at 37°C and 5% CO2 for 50 minutes to incorporate the Ca^2+ dye into the cells. The cell plate was then placed in the Flexstation (Molecular Devices) for 20 minutes at 37°C. Compounds were dissolved in 100% DMSO and diluted to desired concentrations with assay buffer and placed in the Flexstation simultaneously with the cell plate for 20 minute incubation at 37°C prior to reading. Fluorescence intensity was measured immediately following compound addition (25 µL/well) on the Flexstation at an excitation wavelength of 485 nm and an emission wavelength of 525 with 515 nm auto cutoff. The resulting increase in fluorescence intensities corresponds to increases in intracellular Ca^2+ levels.
Compounds were dissolved in 100% DMSO to a concentration of 20 mM to provide stock solutions. To determine activity against human GPR120, compounds were added with human GPR120 stably expressing cells (described above), at eight desired concentrations ranging from 0.00001 to 20 µM, in 96 well plates and fluorescence intensities were measured for 90 seconds with 2-second intervals. An EC50 value (concentration of the GPR120 agonist where 50% of the agonist's maximal activity is observed) was calculated using the changes (Max-Min) of fluorescence intensity.
To determine percent activity for a tested compound, the fluorescence intensity value obtained at a particular concentration were compared to the maximal fluorescence intensity value obtained for reference compound GW9508 (4-[[(3-phenoxyphenyl)methyl]amino]benzene propanoic acid; British Journal of Pharmacology 2006 148, 619-628) or the compound of Example 25. When GW9508 was used as the reference compound, the maximal activity of GW9508 at 6.7µM was designated as 100% activity. When the compound of Example 25 was used as the reference compound, the maximal activity of the compound of Example 25 at 2.5 µM was designated as 100% activity. Typically, the GW9508 activity reached a maximum at a concentration of approximately 6.7 µM and typically the compound of Example 25 reached a maximum activity at approximately 2.5µM. […]
Take `CC1(C)Cc2cc(F)cc(CCc3ccc(OCC(=O)O)cc3)c2O1` [Example 70, 2-(4-(2-(5-fluoro-2,2-dimethyl-2,3-dihydrobenzofuran-7-yl)ethyl)phenoxy)acetic acid]: the activity at 2.5 µM was 118%.

The assay is the same for the next values; noted with them: HEK293, % activity at 2.5 µM compared to the maximal activity of the compound of Example 25 at 2.5 µM (=100%); HEK293 cells co-expressing Gqi5; read-out: % Activity (Ex. 25 Reference Compound).
Turning to `CCOC(Cc1cc(F)c(OCc2cc(F)cc3c2OC(C)(C)C3)c(F)c1)C(=O)O` (stereo not drawn) [Example 69, 3-(3,5-difluoro-4-((5-fluoro-2,2-dimethyl-2,3-dihydrobenzofuran-7-yl)methoxy)phenyl)-2-ethoxypropanoic acid], the activity at 2.5 µM was determined as 78.5%.
On to `CC1(C)Cc2cc(Cl)cc(COc3ccc(CCC(=O)O)c(-c4ccccc4)c3)c2O1` [Example 71, 3-(5-((5-chloro-2,2-dimethyl-2,3-dihydrobenzofuran-7-yl)methoxy)-[1,1'-biphenyl]-2-yl)propanoic acid], for which the activity at 2.5 µM is 134%.
Still for that read-out and setting: to `CCCc1cc(OCc2cc(Cl)cc3c2OC(C)(C)C3)c(F)cc1CCC(=O)O` [Example 73, 3-(4-((5-chloro-2,2-dimethyl-2,3-dihydrobenzofuran-7-yl)methoxy)-5-fluoro-2-propylphenyl)propanoic acid] belongs 115%; to `CC(Cc1ccc(OCc2cc(Cl)cc3c2OC(C)(C)C3=O)c(C(F)(F)F)c1)C(=O)O` (stereo not drawn) [Example 79, 3-(4-((5-chloro-2,2-dimethyl-3-oxo-2,3-dihydrobenzofuran-7-yl)methoxy)-3-(trifluoromethyl)phenyl)-2-methylpropanoic acid], 3.85%.
Still for that read-out and setting: to `CC(Cc1ccc(OCc2cc(Cl)cc3c2OC(C)(C)C3O)c(F)c1)C(=O)O` (stereo not drawn) [Example 80, 3-(4-((5-chloro-3-hydroxy-2,2-dimethyl-2,3-dihydrobenzofuran-7-yl)methoxy)-3-fluorophenyl)-2-methylpropanoic acid] belongs 86.2%.
On the same count and under the same terms, with `CC(Cc1ccc(OCc2cc(-c3ccc(Cl)cc3)cc3c2OC(C)(C)C3)cc1)C(=O)O` (stereo not drawn) [Example 82, 3-(4-((5-(4-chlorophenyl)-2,2-dimethyl-2,3-dihydrobenzofuran-7-yl)methoxy)phenyl)-2-methylpropanoic acid] the figure was 24%.
In the case of `COc1cccc(-c2cc(COc3ccc(CC(C)C(=O)O)cc3)c3c(c2)CC(C)(C)O3)c1` (stereo not drawn) [Example 86, 3-(4-((5-(3-methoxyphenyl)-2,2-dimethyl-2,3-dihydrobenzofuran-7-yl)methoxy)phenyl)-2-methylpropanoic acid], the activity at 2.5 µM came to 5.23%.
As for `CC(Cc1ccc(OCc2cc(Cl)cc3c2OC(C)(C)C3)c(CN(C)C)c1)C(=O)O` (stereo not drawn) [Example 88, 3-(4-((5-chloro-2,2-dimethyl-2,3-dihydrobenzofuran-7-yl)methoxy)-3-((dimethylamino)methyl)phenyl)-2-methylpropanoic acid], the activity at 2.5 µM stood at 119%.
As to `CCN(CC)c1cc(COc2ccc(CC(C)C(=O)O)cc2)c2c(c1)CC(C)(C)O2` (stereo not drawn) [Example 89, 3-(4-((5-(diethylamino)-2,2-dimethyl-2,3-dihydrobenzofuran-7-yl)methoxy)phenyl)-2-methylpropanoic acid], the activity at 2.5 µM worked out at 82.3%.
In the case of `CC(Cc1ccc(OCc2cc(-n3cnnn3)cc3c2OC(C)(C)C3)cc1)C(=O)O` (stereo not drawn) [Example 90, 3-(4-((2,2-dimethyl-5-(1H-tetrazol-1-yl)-2,3-dihydrobenzofuran-7-yl)methoxy)phenyl)-2-methylpropanoic acid], the activity at 2.5 µM came out at 75.9%.
Still for that read-out and setting: with `CC(Cc1ccc(OCc2ccc(F)c3c2CC(C)(C)O3)cc1)C(=O)O` (stereo not drawn) [Example 91, 3-(4-((7-fluoro-2,2-dimethyl-2,3-dihydrobenzofuran-4-yl)methoxy)phenyl)-2-methylpropanoic acid] the figure was 121%; with `CC1(C)Cc2c(COc3ccc4c(c3)CCC4CC(=O)O)ccc(F)c2O1` (stereo not drawn) [Example 94, 2-(5-((7-fluoro-2,2-dimethyl-2,3-dihydrobenzofuran-4-yl)methoxy)-2,3-dihydro-1H-inden-1-yl)acetic acid], 98.5%; with `CC(Cc1ccc(OCc2c(F)ccc3c2CC(C)(C)O3)cc1)C(=O)O` (stereo not drawn) [Example 96, 3-(4-((5-fluoro-2,2-dimethyl-2,3-dihydrobenzofuran-4-yl)methoxy)phenyl)-2-methylpropanoic acid], 125%.
For the compound `CC1(C)Cc2c(ccc(F)c2COc2c(F)cc(C3CC3C(=O)O)cc2F)O1` (stereo not drawn) [Example 99, 2-(3,5-difluoro-4-((5-fluoro-2,2-dimethyl-2,3-dihydrobenzofuran-4-yl)methoxy)phenyl)cyclopropanecarboxylic acid], the activity at 2.5 µM came out at 102%.
On to `Cc1cc(OCC(=O)O)ccc1OCc1cc(Cl)cc2c1OC(C)(C)C2` [Example 103, 2-(4-((5-chloro-2,2-dimethyl-2,3-dihydrobenzofuran-7-yl)methoxy)-3-methylphenoxy)acetic acid], for which the activity at 2.5 µM was determined as 99%.
In the case of `CC(CC(=O)O)c1cc(F)c(OCc2cc(Cl)cc3c2OC(C)(C)C3)c(F)c1` (stereo not drawn) [Example 106, 3-(4-((5-chloro-2,2-dimethyl-2,3-dihydrobenzofuran-7-yl)methoxy)-3,5-difluorophenyl)butanoic acid], the activity at 2.5 µM is 155%.
Turning to `COc1cc(COc2ccc(CC(C)C(=O)O)cc2)c2c(c1)CC(C)(C)O2` (stereo not drawn) [Example 108, 3-(4-((5-methoxy-2,2-dimethyl-2,3-dihydrobenzofuran-7-yl)methoxy)phenyl)-2-methylpropanoic acid], the activity at 2.5 µM turned out to be 144%.
The same measure, in the same setting: with `CC(Cc1cc(F)c(OCc2cc(Cl)cc3c2OC(C)C3(C)C)c(F)c1)C(=O)O` (stereo not drawn) [Example 109, 3-(4-((5-chloro-2,3,3-trimethyl-2,3-dihydrobenzofuran-7-yl)methoxy)-3,5-difluorophenyl)-2-methylpropanoic acid] the figure was 72.4%; with `CC(Cc1cc(F)c(OCc2cc(OCc3ccccc3)cc3c2OC(C)(C)C3)c(F)c1)C(=O)O` (stereo not drawn) [Example 111, 3-(4-((5-(benzyloxy)-2,2-dimethyl-2,3-dihydrobenzofuran-7-yl)methoxy)-3,5-difluorophenyl)-2-methylpropanoic acid], 51.5%; with `CC1(C)Cc2cc(Cl)cc(COc3ccc4c(c3)CC(C(=O)O)C4)c2O1` (stereo not drawn) [Example 112, 5-((5-chloro-2,2-dimethyl-2,3-dihydrobenzofuran-7-yl)methoxy)-2,3-dihydro-1H-indene-2-carboxylic acid], 115%.
On to `CC1(C)Cc2cc(F)cc(COc3ccc4cc(C(=O)O)ccc4c3)c2O1` [Example 114, 6-((5-fluoro-2,2-dimethyl-2,3-dihydrobenzofuran-7-yl)methoxy)-2-naphthoic acid], for which the activity at 2.5 µM came out at 124%.
With `CC(C)Oc1cc(OCc2cc(F)cc3c2OC(C)(C)C3)ccc1CCC(=O)O` [Example 115, 3-(4-((5-fluoro-2,2-dimethyl-2,3-dihydrobenzofuran-7-yl)methoxy)-2-isopropoxyphenyl)propanoic acid], the activity at 2.5 µM was 152%.

The assay is the same for the next values; noted with them: eight concentrations from 0.00001 to 20 µM; changes (Max-Min) of fluorescence intensity.
Turning to `CC(Cc1ccc(OCc2cc(Cl)cc3c2OC(C)(C)C3O)c(F)c1)C(=O)O` (stereo not drawn) [Example 80, 3-(4-((5-chloro-3-hydroxy-2,2-dimethyl-2,3-dihydrobenzofuran-7-yl)methoxy)-3-fluorophenyl)-2-methylpropanoic acid], the EC50 fell in the range of 1 to 10 µM.
The same measure, in the same setting: to `CC(Cc1ccc(OCc2cc(Br)cc3c2OC(C)(C)C3)cc1)C(=O)O` (stereo not drawn) [Example 81, 3-(4-((5-bromo-2,2-dimethyl-2,3-dihydrobenzofuran-7-yl)methoxy)phenyl)-2-methylpropanoic acid] belongs ≤ 1 µM.
Same read-out and setting: to `CC(Cc1ccc(OCc2cc(-c3ccc(Cl)cc3)cc3c2OC(C)(C)C3)cc1)C(=O)O` (stereo not drawn) [Example 82, 3-(4-((5-(4-chlorophenyl)-2,2-dimethyl-2,3-dihydrobenzofuran-7-yl)methoxy)phenyl)-2-methylpropanoic acid] belongs 1 to 10 µM.
On the same count and under the same terms, to `CC(Cc1cc(F)c(OCc2cc(OCc3ccccc3)cc3c2OC(C)(C)C3)c(F)c1)C(=O)O` (stereo not drawn) [Example 111, 3-(4-((5-(benzyloxy)-2,2-dimethyl-2,3-dihydrobenzofuran-7-yl)methoxy)-3,5-difluorophenyl)-2-methylpropanoic acid] belongs 1 to 10 µM.
